From ChEMBL document CHEMBL1201862, “PubChem BioAssay data set” (2004)
Calls of active or inactive are those of the source.

Columns and labels:
cells [1] = assay type: functional, cell-based
Aminopeptidase N = target: T1, Aminopeptidase N (Plasmodium falciparum FcB1/Columbia, UniProt O96935); assay: malaria alanyl aminopeptidase activity blockers – biochemical, fluorogenic H-Leu-NHMec substrate, 1536-well (AID 1445); design: species or system Plasmodium falciparum 3D7, 3D7
T1 sequence (O96935 whole entry): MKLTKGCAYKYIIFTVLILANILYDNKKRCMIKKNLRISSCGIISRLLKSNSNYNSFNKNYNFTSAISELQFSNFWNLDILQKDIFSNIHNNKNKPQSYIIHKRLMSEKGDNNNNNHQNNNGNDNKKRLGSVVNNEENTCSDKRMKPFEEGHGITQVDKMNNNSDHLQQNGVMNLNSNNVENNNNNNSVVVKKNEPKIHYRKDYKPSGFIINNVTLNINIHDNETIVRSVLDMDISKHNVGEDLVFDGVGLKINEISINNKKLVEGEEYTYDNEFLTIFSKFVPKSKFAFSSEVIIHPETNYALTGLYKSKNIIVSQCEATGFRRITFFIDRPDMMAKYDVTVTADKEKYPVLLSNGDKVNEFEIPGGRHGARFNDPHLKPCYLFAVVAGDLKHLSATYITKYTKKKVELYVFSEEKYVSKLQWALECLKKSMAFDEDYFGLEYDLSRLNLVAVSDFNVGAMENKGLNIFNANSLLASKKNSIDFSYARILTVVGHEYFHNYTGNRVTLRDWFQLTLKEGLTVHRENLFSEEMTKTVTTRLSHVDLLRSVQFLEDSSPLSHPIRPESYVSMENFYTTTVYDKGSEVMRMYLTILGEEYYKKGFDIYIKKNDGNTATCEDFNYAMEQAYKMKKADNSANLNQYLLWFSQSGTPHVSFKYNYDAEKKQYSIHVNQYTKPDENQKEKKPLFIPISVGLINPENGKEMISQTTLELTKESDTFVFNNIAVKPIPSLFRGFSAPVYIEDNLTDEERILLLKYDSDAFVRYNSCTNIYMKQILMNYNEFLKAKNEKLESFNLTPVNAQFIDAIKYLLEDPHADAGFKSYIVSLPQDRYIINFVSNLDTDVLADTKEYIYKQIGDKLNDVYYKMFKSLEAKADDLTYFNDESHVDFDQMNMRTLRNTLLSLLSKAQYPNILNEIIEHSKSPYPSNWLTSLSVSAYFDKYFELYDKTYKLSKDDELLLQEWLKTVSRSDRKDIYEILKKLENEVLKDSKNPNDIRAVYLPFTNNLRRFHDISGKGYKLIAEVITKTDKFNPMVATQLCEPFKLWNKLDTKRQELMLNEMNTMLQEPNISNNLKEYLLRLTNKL

cells [2] = assay type: functional, cell-based; remark: listed apart in the source
[3] = viability loss in CEM21 cells – cell-based, CellTiter-Glo luminescence, cherry-picked, cytotoxicity control for viral fusion inhibitor project, dose response (AID 652042); assay type: functional;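 also: potency for signal decrease meaning cytotoxicity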
[4] = blockers of HIV-1 ZM109 envelope-driven cell-cell fusion – HeLa effector, CEM target cells, luciferase, cherry-pick, dose response (AID 652058); assay type: functional, cell-based;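 also: luciferase signal from HIV-1 Env mediated cell-cell fusion of effector and target cells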
[5] = off-target signal loss in HeLa-CEM21 co-culture – HeLa F-luc CTL cells, cherry-picked, counter-screen for HIV-1 Env fusion inhibitor project, dose response (AID 652040); assay type: functional, cell-based;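 also: potency for signal decrease marking cytotoxic or nonspecific inhibition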
Coagulation factor XII = target: T2, Coagulation factor XII (Homo sapiens, UniProt P00748); assay type: functional;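 also: activated factor XIIa alpha cleaving a fluorogenic AMC peptide substrate; inhibitor potency from loss of enzyme activity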
T2 sequence (P00748 whole entry): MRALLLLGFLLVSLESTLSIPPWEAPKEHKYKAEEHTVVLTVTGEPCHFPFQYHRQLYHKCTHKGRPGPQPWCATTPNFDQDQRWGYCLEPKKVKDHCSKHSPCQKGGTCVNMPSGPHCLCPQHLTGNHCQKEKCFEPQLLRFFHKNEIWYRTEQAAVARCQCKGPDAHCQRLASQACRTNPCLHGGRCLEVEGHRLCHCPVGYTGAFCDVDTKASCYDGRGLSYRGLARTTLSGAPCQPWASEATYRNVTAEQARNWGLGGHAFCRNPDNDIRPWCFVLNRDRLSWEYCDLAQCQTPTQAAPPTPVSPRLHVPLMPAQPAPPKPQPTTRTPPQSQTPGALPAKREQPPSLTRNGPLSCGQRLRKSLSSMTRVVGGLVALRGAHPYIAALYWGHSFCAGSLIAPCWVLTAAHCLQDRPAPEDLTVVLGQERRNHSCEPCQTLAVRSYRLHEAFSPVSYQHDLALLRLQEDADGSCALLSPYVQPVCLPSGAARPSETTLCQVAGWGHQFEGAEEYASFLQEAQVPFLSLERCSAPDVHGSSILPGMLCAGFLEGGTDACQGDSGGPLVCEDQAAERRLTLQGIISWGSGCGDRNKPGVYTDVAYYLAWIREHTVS

[6] = HIV-1 AD8 envelope cell-cell fusion blockers – cherry-pick, dose response (AID 652062); assay type: functional, cell-based;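 also: luciferase signal from cell-cell fusion driven by HIV-1 clade B AD8 Env; potency is for inhibitors of fusion seen as a drop in luminescence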
[7] = blockers of HIV-1 envelope-mediated cell-cell fusion – cherry-pick, dose response (AID 652057); assay type: functional, cell-based
[8] = target: T3, Short transient receptor potential channel 4 (Mus musculus, UniProt Q9QUQ5); assay: calcium entry via TRPC4 opening agents – cell-based, HEK293 TRPC4/mu-opioid, Fluo-4 calcium, dose response (AID 434937); assay type: functional
T3 sequence (Q9QUQ5 whole entry): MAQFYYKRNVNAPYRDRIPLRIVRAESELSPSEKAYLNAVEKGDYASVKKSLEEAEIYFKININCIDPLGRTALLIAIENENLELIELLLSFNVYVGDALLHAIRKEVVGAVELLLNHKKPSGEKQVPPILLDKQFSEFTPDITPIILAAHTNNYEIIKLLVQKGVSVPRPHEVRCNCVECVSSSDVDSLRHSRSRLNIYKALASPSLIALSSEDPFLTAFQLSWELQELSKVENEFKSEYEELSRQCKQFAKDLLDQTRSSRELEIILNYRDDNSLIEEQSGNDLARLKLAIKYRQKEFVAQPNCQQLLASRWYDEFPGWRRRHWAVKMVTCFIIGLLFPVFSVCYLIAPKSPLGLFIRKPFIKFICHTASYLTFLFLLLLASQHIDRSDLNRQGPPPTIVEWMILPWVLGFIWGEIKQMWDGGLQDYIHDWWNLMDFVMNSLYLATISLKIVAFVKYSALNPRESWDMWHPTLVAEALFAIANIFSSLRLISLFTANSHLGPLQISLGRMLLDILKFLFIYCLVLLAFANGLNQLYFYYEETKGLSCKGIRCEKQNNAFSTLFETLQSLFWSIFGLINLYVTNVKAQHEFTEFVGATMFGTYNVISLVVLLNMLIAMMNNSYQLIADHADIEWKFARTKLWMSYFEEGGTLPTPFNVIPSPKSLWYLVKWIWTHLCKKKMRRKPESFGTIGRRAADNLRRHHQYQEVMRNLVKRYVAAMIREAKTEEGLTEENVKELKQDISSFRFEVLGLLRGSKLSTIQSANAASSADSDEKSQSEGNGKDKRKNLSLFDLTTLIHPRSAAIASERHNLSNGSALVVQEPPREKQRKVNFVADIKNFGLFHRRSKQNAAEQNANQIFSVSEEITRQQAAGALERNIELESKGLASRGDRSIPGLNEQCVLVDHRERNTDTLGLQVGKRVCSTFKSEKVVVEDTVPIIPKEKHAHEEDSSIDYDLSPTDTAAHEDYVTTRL

[9] = test system: Streptococcus sp. 'group A'; assay: Streptococcus pyogenes SK(-)GAS viability under kanamycin – luminescence, BacTiterGlo, confirmation, counter-screen for streptokinase expression inhibitor project, dose response (AID 1900); assay type: functional, organism-based
Streptokinase A = target: T4, Streptokinase A (Streptococcus pyogenes serotype M1, UniProt P10520); assay: viability-normalized secreted streptokinase activity reduction – plasminogen activation absorbance, OD405, dose response (AID 1914); assay type: functional, Streptococcus pyogenes M1 GAS;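 also: secreted streptokinase activity via plasminogen activation per viability signal from cell pellet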
T4 sequence (P10520 whole entry): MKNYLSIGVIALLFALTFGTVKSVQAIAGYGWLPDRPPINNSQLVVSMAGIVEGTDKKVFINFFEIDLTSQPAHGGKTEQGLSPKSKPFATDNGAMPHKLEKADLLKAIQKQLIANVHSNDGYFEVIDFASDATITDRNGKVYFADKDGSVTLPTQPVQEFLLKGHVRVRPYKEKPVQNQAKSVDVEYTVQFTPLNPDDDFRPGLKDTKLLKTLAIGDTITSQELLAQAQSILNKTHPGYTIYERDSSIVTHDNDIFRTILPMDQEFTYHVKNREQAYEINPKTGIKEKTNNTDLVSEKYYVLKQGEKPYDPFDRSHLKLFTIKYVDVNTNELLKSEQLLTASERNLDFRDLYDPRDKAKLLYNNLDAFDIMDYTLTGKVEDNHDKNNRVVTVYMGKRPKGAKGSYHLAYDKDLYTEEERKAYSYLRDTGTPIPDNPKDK

Streptococcus = assay: GAS UMAA2166 growth inhibition – luminescence, BacTiterGlo, counter-screen for streptokinase expression inhibitor project, dose response (AID 1915); assay type: functional, organism-based;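 also: potency for reduction of bacterial viability or growth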
[10] = decrease of insulin promoter-GFP reporter – imaging, high-content screening, mouse beta cells (AID 1628); assay type: functional; settings: MIN6
[11] = MIN6 cell viability loss – mouse insulinoma, cytotoxicity control, dose response (AID 2122); assay type: functional;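 also: confirmatory high-throughput counterscreen run to flag cytotoxic compounds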
[12] = target: T5, RNA-binding protein pos-1 (Caenorhabditis elegans, UniProt G5EF15); assay: disruptors of C. elegans POS-1 RNA interaction – biochemical, fluorescence polarization, dose response (AID 1964);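 also: purified POS-1 fused to maltose binding protein made in E. coli; potency of compounds blocking POS-1 binding to fluorescent RNA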
T5 sequence (G5EF15 whole entry): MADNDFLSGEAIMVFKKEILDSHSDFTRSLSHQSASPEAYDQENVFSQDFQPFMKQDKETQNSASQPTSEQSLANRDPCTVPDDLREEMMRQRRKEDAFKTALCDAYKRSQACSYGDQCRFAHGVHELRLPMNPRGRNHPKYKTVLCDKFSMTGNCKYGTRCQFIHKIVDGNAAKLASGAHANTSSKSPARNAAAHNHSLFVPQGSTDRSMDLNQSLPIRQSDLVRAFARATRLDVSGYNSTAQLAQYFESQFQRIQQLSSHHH

[13] = target: T6, Zinc finger protein mex-5 (Caenorhabditis elegans, UniProt Q9XUB2); assay: potency of MEX-5 RNA-binding blockers – biochemical, C. elegans, fluorescence polarization, dose response (AID 1960)
T6 sequence (Q9XUB2 whole entry): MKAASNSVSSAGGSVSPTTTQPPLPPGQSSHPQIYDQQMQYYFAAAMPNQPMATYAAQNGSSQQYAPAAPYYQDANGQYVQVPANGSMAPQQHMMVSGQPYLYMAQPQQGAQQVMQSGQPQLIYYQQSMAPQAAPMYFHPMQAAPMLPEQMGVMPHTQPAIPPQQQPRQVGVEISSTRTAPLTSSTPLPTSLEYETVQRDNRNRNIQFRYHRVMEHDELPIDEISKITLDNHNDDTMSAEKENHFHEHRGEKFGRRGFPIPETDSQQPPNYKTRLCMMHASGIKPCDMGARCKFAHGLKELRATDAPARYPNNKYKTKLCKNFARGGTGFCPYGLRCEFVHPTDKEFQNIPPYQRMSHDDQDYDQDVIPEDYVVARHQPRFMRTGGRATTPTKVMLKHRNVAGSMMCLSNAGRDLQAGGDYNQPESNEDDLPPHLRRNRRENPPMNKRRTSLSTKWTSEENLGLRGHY

With Nc1nc2nc(-c3cccs3)cc(C(F)(F)F)n2n1 the EC50 (cells [1]) was > 350 µM (not active), the IC50 (Aminopeptidase N) was 61.4 µM (active) and the EC50 (cells [2]) was > 350 µM (not active).
In the case of Cc1ccc(S(=O)(=O)N(CC(=O)NCCC2=CCCCC2)Cc2ccccc2)cc1, the AC50 [3] is reported as 41.1 µM (active), the AC50 [4] is reported as 10.7 µM (active) and the AC50 [5] is reported as 7.25 µM (active). The IC50 (Coagulation factor XII) was > 50 µM (inactive), the AC50 [6] was 10.2 µM (active) and the AC50 [7] was 5.01 µM (active).
For O=[N+]([O-])c1ccc(N2CCNCC2)c2ncccc12, the EC50 [8] was 0.0373 µM (active).
With CN(C)c1ccc(C(=O)NN2C(=O)c3ccccc3C2=O)cc1 the IC50 (Coagulation factor XII) was > 50 µM (inactive).
For COc1cc(OC)cc(C(=O)NC(=S)NNC(=O)Cc2cccs2)c1, the EC50 [9] was 0.814 µM (active), the EC50 (Streptokinase A) was > 150 µM (not active) and the EC50 (Streptococcus) was 11.6 µM (active). The EC50 [8] was 10.6 µM (active).
For CN(C)C(CNC(=O)c1cccc(S(=O)(=O)N(C)C)c1)c1ccccc1 (stereo unspecified), the EC50 [8] was 0.299 µM (active).
In the case of COC(=O)c1sccc1NC(=O)/C=C/c1c(Cl)cccc1Cl, the IC50 (Coagulation factor XII) is reported as > 50 µM (inactive).
In the case of Cc1sc2nc(-c3ccccn3)nc(O)c2c1-c1ccccc1, the EC50 [9] is reported as 1.25 µM (active), the IC50 [10] is reported as 4.11 µM (active) and the IC50 [11] is reported as 5.43 µM (active). For the same compound, the EC50 (Streptococcus) was 23.9 µM (active).
In the case of Cc1cc(O)nc(N/N=C/c2cc(C)n(CC(F)(F)F)c2C)n1, the IC50 [10] is reported as 2 µM (active) and the IC50 [11] is reported as 11.2 µM (inactive).
In the case of O=C(O)c1cc(-c2ccc(/C=N/Nc3ccc([N+](=O)[O-])cn3)o2)ccc1Cl, the IC50 (Aminopeptidase N) is reported as 12.7 µM (active), the EC50 [12] is reported as 31 µM (active) and the EC50 [13] is reported as 6.29 µM (active).
